Measured values: US4200760A, “Imidazolylalkylthioalkylamino-ethylene derivatives” (Bristol-Myers Company, priority 1978, dated 1980)

Legend:
histamine H2-receptors [1] = biological target: T1, histamine H2-receptors (Cavia porcellus, UniProt P47747); assay: Histamine H2-receptor antagonism, isolated guinea pig right atria assay; parameters: species or system guinea pig (male Hartley strain); conditions: for Histamine ED50 after test compound / Concentration-Response Curve Displacement Factor: test compound 3 × 10^-5 M; for Histamine ED50 after test compound: 30 minute incubation; for Concentration-Response Curve Displacement Factor: shift of histamine curve to the right
T1 construct: The spontaneously beating right atrium was dissected free from other tissues; from tissue; host or cells: isolated spontaneously beating right atrium, male Hartley guinea pig
T1 sequence (P47747 whole entry): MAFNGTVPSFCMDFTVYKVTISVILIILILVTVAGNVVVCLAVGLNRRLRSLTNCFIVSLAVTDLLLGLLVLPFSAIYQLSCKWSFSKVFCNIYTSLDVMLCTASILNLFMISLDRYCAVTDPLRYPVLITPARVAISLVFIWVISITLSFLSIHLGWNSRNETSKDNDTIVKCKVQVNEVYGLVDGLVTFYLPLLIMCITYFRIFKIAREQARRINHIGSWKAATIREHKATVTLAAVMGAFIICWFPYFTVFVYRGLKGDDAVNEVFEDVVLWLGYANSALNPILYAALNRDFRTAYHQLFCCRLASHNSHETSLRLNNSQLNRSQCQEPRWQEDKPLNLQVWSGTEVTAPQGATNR
Description: Subsequent investigations by Hughes and Coret, Proc. Soc. […] Black et al., Agents and Actions, 3, 133 (1973) and Brimblecombe et al., Fed. […] The present comparative studies were carried out using a modification of the procedure reported by Reinhardt et al., Agents and Actions, 4, 217 (1974).
Male Hartley strain guinea pigs (350-450 gm.) were sacrificed by a blow on the head. The heart was excised and placed in a Petri dish of oxygenated (95% O2, 5% CO2) modified Krebs solution (g./liter: NaCl 6.6, KCl 0.35, MgSO4.7 H2 O 0.295, KH2 PO4 0.162, CaCl2 0.238, NaHCO3 2.1 and dextrose 2.09). The spontaneously beating right atrium was dissected free from other tissues and a silk thread (4-O) attached to each end. The atrium was suspended in a 20 ml. muscle chamber containing oxygenated modified Krebs solution maintained at 32° C. Atrial contractions were recorded isometrically by means of a Grass FT 0.03 force displacement transducer and recordings of contractile force and rate were made with a Beckman RP Dynograph.
A resting tension of 1 g. was applied to the atrium and it was allowed to equilibrate for 1 hour.
Concentration-response curve displacement factors were calculated as follows: [formula] […] [formula]

gastric acid output [2] = assay: Gastric antisecretory activity in the two hour pylorus ligated (Shay) rat; type: in vivo, rat (male Long Evans); conditions: for ED50: 2 h, read-out: ED50 (acid output); for Potency Ratio: relative to cimetidine
Description: The pyloric ligation procedure in the rat was designed by Shay et al., Gastroenterology, 5, 53 (1945) for the study of perforating gastric ulcers; however, as the method became known, it was also employed as a means of studying rat gastric secretion, Shay et al., Gastroenterology, 26, 906 (1954), Brodie, D. A., Am. J. Dig. Dis., 11, 231 (1966). A modification of this procedure is presently used to evaluate compounds for gastric antisecretory activity.
Male Long Evans rats, 280-300 gm., are used. The animals are placed in individual cages and fasted for 24 hours with free access to water. Under ether anesthesia, the stomach is reached through a midline incision, and a cotton-thread ligature is placed around the pylorus. […] All compounds are solubilized with one equivalent of HCl and brought to the proper volume with water. The animals are returned to their cages from which the water bottles have been removed and two hours later are sacrificed with ether. The stomach is removed and the two hour gastric collection is drained into a graduated test tube for volume determination. Titratable acidity is measured by titrating a one ml. sample to pH 7.0 with 0.02 N NaOH, using an Autoburet and an electrometric pH meter (Radiometer). Titratable acid output is calculated in microequivalents by multiplying the volume in milliliters by the acid concentration in milliequivalents per liter. The percent inhibition of acid output is calculated as follows: [formula]

gastric acid output [3] = assay: Gastric antisecretory activity in the gastric fistula dog (histamine-induced gastric acid output); type: in vivo, dog (beagle); conditions: for ED50: Canis lupus familiaris, read-out: ED50 (acid output); for Potency Ratio: relative to cimetidine
Description: Thomas type [Thomas, J. E., Proc. Soc. exp. Biol. Med., 46, 260 (1941)] stainless steel cannulae are inserted into the stomachs of beagle dogs (10-12 kg.) just orad to the pyloric gland area near the greater curvature to provide a chronic gastric fistula. Animals are allowed to recover for at least two months before any testing is done. Dogs are fasted overnight (~18 hours) with water ad lib prior to each experiment. The dogs are placed in a sling and an eight inch inside needle catheter (C. R. Baird, Inc.) with a two inch 17 gauge needle is inserted into a leg vein for purposes of drug administration. Gastric secretions are collected every 15 minutes by gravity drainage from the opened cannula. […] A modification of the procedure described by Grossman and Konturek, Gastroenterology, 66, 517 (1974) was followed. […] Each 15 minute sample of gastric juice is measured to the nearest 0.5 ml. and titratable acidity against 0.02 N NaOH (endpoint pH 7.0) is measured with an Autoburet and pH meter (radiometer).The percent inhibition of acid output is calculated as described in the pylorus ligated rat procedure.

H2 receptors = conditions: cited from earlier work
peptic ulcer disease = conditions: clinical evaluation, Gray et al.; cited from earlier work
agranulocytosis = conditions: in vivo; cited from earlier work
[4] = cited from earlier work
gastric secretion = conditions: animals and man; cited from earlier work
histamine H2-receptors [5] = biological target: T1, histamine H2-receptors; conditions: Black et al., isolated guinea pig right atria; cited from earlier work
[6] = ip, two hour pylorus ligated rat
[7] = 1.50 μMole/kg iv (BL-5949: one dog at this dose)
[8] = iv, histamine-stimulated gastric fistula dog
[9] = compared with cimetidine and Compound XII

SMILES	Histamine ED50 after test compound (histamine H2-receptors [1])	Concentration-Response Curve Displacement Factor (histamine H2-receptors [1])	Percent Inhibition Acid Output (gastric acid output [2]; 10 μMole/kg ip)	Percent Inhibition Acid Output (gastric acid output [2]; 20 μMole/kg ip)	Percent Inhibition Acid Output (gastric acid output [2]; 40 μMole/kg ip)	ED50 (gastric acid output [2]; [6])	Potency Ratio (gastric acid output [2]; ip)	Percent Inhibition Acid Output (gastric acid output [3]; 0.375 μMole/kg iv)	Percent Inhibition Acid Output (gastric acid output [3]; 0.75 μMole/kg iv)	Percent Inhibition Acid Output (gastric acid output [3]; [7])	ED50 (gastric acid output [3]; [8])	Potency Ratio (gastric acid output [3]; iv)	H2 antagonist activity (in words) (H2 receptors)	Percent Inhibition Acid Output (gastric acid output [2]; 2.5 μMole/kg ip)	Percent Inhibition Acid Output (gastric acid output [2]; 5 μMole/kg ip)	Toxicity (agranulocytosis) (agranulocytosis)	Inhibition of gastric secretion / oral activity (in words) (gastric secretion)	also measured
CNC(=C[N+](=O)[O-])NCCSCc1[nH]cnc1C [Compound XII]	4.30 µg/mL	17.92	25%	64%	86%	17.2 µmol/kg	0.61	22%	42%	73%	0.9 µmol/kg	1.47						
CNC(=NC#N)NCCSCc1[nH]cnc1C [Cimetidine]	4.80 µg/mL	25.26	41%	57%	72%				37%	53%			as effective an H2 antagonist as metiamide	9%	53%	without producing agranulocytosis		ED50 (gastric acid output [2]; Rattus norvegicus, ip): 10.4 µmol/kg; Efficacy in the treatment of peptic ulcer disease (in words) (peptic ulcer disease): effective therapeutic agent in the treatment of peptic ulcer disease; half-life ([4]; in vivo): relatively short; Percent Inhibition Acid Output (gastric acid output [3]; 3.0 μMole/kg iv): 73%; ED50 (gastric acid output [3]; iv): 1.33 µmol/kg
C#CCNC(=C[N+](=O)[O-])NCCSCc1[nH]cnc1C [BL-5949, 1-Nitro-2-(2-propynylamino)-2-{2-[(4-methyl-1H-imidazol-5-yl)methylthio]ethylamino}ethylene]	14.05 µg/mL	46.83		87%		4.62 µmol/kg	2.26	62%	68%		0.24 µmol/kg	5.56		33%	51%			Potency as histamine H2-receptor antagonist in isolated guinea pig atria (in words) (histamine H2-receptors [1]; [9]): more potent than either cimetidine or Compound XII; times as active as Compound XII (histamine H2-receptors [1]; relative to Compound XII): about 2.7 times; Potency as inhibitor of gastric secretion in rats (in words) (gastric acid output [2]; [9]): more potent than either cimetidine or Compound XII; times more potent than Compound XII (gastric acid output [2]; relative to Compound XII, ip): 3.7 times; Percent Inhibition Acid Output (gastric acid output [3]; 0.0938 μMole/kg iv): 34%; Percent Inhibition Acid Output (gastric acid output [3]; 0.1875 μMole/kg iv): 46%; Potency as inhibitor of gastric secretion in dogs (in words) (gastric acid output [3]; [9]): more potent than either cimetidine or Compound XII; times more potent than Compound XII (gastric acid output [3]; relative to Compound XII, iv): 3.8 times
NCCc1c[nH]cn1 [Histamine]																		Histamine ED50 (control, before test compound) (histamine H2-receptors [1]; control of Compound XII series, N=2, contractile rate): 0.24 µg/mL
CNC(=S)NCCSCc1[nH]cnc1C [Metiamide]													more potent than burimamide			toxicity (agranulocytosis)	orally active in man	
CNC(=S)NCCCCc1cnc[nH]1 [Burimamide]																	inhibits gastric secretion in animals and man	Type of antagonism at histamine H2-receptors (in words) (histamine H2-receptors [5]): competitive antagonist of these receptors; oral absorption ([4]; oral): poor
